The results in this text go back to PubChem BioAssay (NCI).

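Five concentrations, 48 hours, 96-well plates. TGI: total growth inhibition.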

Common to all, as to experiment: growth of human tumour cells (NCI), 48 h
The test system of experiment [1] is LOX IMVI melanoma.
Experiment [2] has as its system HL-60(TB) leukemia.
Experiment [3] concerns SK-MEL-28 melanoma.
For experiment [4], the system named is SNB-75 CNS.
The test system of experiment [5] is NCI-H226 lung.
Experiment [6] relates to U251 CNS.
The subject of experiment [7] is MCF7 breast.
For experiment [8], the system named is HT29 colon.
In experiment [9] the test system is OVCAR-5 ovarian.
Experiment [10] relates to SF-268 CNS.
Experiment [11] concerns HOP-92 NSCLC.
Experiment [12] relates to OVCAR-4 ovarian.
Experiment [13] concerns SN12C renal.
Experiment [14] deals with UACC-257 melanoma.
Experiment [15] relates to RPMI-8226 leukemia.
Experiment [16] has as its system NCI-H460 lung.
The test system of experiment [17] is HCT-116 colon.
Experiment [18] deals with MALME-3M melanoma.
For experiment [19], the system named is KM12 colon.
In experiment [20] the test system is A549 NSCLC.

`CC(C)/C(Cl)=N/OC(=O)Nc1cccc(C(F)(F)F)c1`: the TGI came to 6.43 µM in [1]; 2.22 µM in experiment [2]; 10.9 µM in experiment [3]; 21.2 µM in experiment [4]; 30.7 µM in experiment [5]; 31.3 µM in [6]. The TGI in experiment [7] is 16.5 µM; in [8], 10.6 µM; in experiment [9], 34 µM; in experiment [10], > 64.9 µM; in experiment [11] it was 3.33 µM; in experiment [12], 16.6 µM. Further, the TGI was 20.1 µM in [13]; 29.5 µM in experiment [14]; 3.69 µM in experiment [15]; 34.3 µM in [16]; 24.7 µM in experiment [17]; 3.66 µM in experiment [18]. The results for the TGI in experiment [19] and in experiment [20] were 29.8 µM and 39.1 µM, respectively.

For `CN(C)CCCNC(=O)c1cc(NC(=O)c2cc(NS(=O)(=O)c3ccc4c(c3)C(=O)c3ccccc3C4=O)cn2C)cn1C`, the TGI in [1], in experiment [2], in experiment [3], in [4], in experiment [5] and in experiment [6] was > 100 µM each time. Also, the TGI in experiment [7], in experiment [8], in experiment [9], in experiment [10], in [11] and in experiment [12] was > 100 µM throughout. Besides, the TGI was > 100 µM in [13]; > 100 µM in experiment [14]; > 100 µM in experiment [15]; > 100 µM in [16]; > 100 µM in experiment [17]; 79.4 µM in experiment [18]. Further, the TGI in experiment [19] and in [20] was > 100 µM each time.

With `C=CCc1c(C)nc(C)nc1N/N=C/C=C/c1ccccc1`, the TGI in experiment [1] is > 100 µM; in [2], 81.2 µM; in experiment [3] it was > 100 µM; in experiment [4], 91.6 µM; in experiment [5], > 100 µM; in experiment [6] it was 61.3 µM. The TGI is 65.3 µM in [7]; > 100 µM in experiment [8]; > 100 µM in experiment [9]; > 100 µM in experiment [10]; 99.5 µM in [11]; 0.18 µM in [12]. Further, the TGI was > 100 µM in experiment [13]; 48.9 µM in experiment [14]; 74.9 µM in [15]; 57.5 µM in experiment [16]; > 100 µM in [17]; > 100 µM in experiment [18]. For the same molecule, the TGI in [20] was > 100 µM.

As for `C=C(C)CNC(=S)N(N)c1ccc(OC)cc1`, the TGI in [1], in experiment [2], in experiment [3], in experiment [4], in experiment [5] and in experiment [6] was > 100 µM throughout. The TGI in [7], in [8], in experiment [9], in experiment [10], in [11] and in experiment [12] was > 100 µM each time. The TGI in [13], in experiment [14], in experiment [15], in [16], in experiment [17] and in experiment [18] was > 100 µM each time. The TGI in [19] and in experiment [20] was > 100 µM throughout.

For `CCOC(=O)CC(=O)C(=O)NNC1=NCCN1`, the TGI in experiment [1], in [2], in experiment [3], in [4], in experiment [5] and in experiment [6] was > 100 µM in each case. Also, the TGI in [7], in [8], in [9], in experiment [10], in experiment [11] and in experiment [12] was > 100 µM throughout. For the same molecule, the TGI in experiment [13], in experiment [14], in experiment [15], in experiment [16], in experiment [17] and in [18] was > 100 µM in each case. Further, the TGI in experiment [19] and in experiment [20] was > 100 µM each time.

With `Cc1ccc(/C=N/Nc2nc3ccccc3s2)s1`, the TGI in experiment [1], in experiment [2], in experiment [3], in experiment [4], in experiment [5] and in [6] was > 100 µM throughout. For the same molecule, the TGI in [7], in experiment [8], in [9], in experiment [10], in [11] and in [12] was > 100 µM in each case. The TGI in experiment [13] was 34.3 µM; in experiment [14], > 100 µM; in experiment [15] it was > 100 µM; in experiment [17], > 100 µM; in experiment [18] it was > 100 µM; in [19] it was > 100 µM. In experiment [20], the TGI was > 100 µM.

Turning to `COc1ccc2oc(=Nc3ccccc3)c(C(N)=O)cc2c1`, the TGI in experiment [1], in experiment [2], in [3], in experiment [4], in experiment [5] and in experiment [6] was > 100 µM each time. In addition, the TGI in [7], in experiment [8], in [9], in [10], in experiment [11] and in experiment [12] was > 100 µM each time. In addition, the TGI in experiment [13], in [14], in experiment [15], in [16], in [17] and in [18] was > 100 µM throughout. The TGI in [19] and in [20] was > 100 µM each time.

Take `CC1=C(C)CC(C#N)(C#N)C(C#N)(C#N)C1`: the TGI in experiment [1] is > 10 µM; in experiment [2], > 5 µM; in [3], > 10 µM; in experiment [4], > 10 µM; in experiment [5], > 10 µM; in [6], > 10 µM. For the same molecule, the TGI in [7] was > 10 µM; in experiment [8], > 10 µM; in experiment [9], > 10 µM; in experiment [10], > 10 µM; in experiment [11], > 6.48 µM; in [12], > 10 µM. Moreover, the TGI in experiment [13] is > 10 µM; in [14], > 10 µM; in experiment [15], > 6.71 µM; in experiment [16], > 10 µM; in experiment [17], > 7.32 µM; in [18] it was > 10 µM. In addition, the TGI in [19] and in [20] was > 10 µM throughout.

On to `Cc1[nH]n(C2=NCCN2)c(=O)c1C`, for which the TGI in experiment [1], in experiment [2], in experiment [4], in [5], in [6] and in [7] was > 100 µM throughout. For the same molecule, the TGI in experiment [8], in experiment [9], in [10], in experiment [11], in experiment [12] and in experiment [14] was > 100 µM in each case. In addition, the TGI in [15], in experiment [16], in [17], in experiment [18], in experiment [19] and in experiment [20] was > 100 µM each time.

For the molecule `CCCCC(C(=O)N/N=C/c1ccc([N+](=O)[O-])o1)C(=O)N/N=C/c1ccc([N+](=O)[O-])o1`, the TGI in [1] is 5.92 µM; in experiment [2], 6.71 µM; in experiment [3], 14.7 µM; in [4], 33.5 µM; in experiment [5], 5.1 µM; in experiment [6] it was 10.3 µM. For the same molecule, the TGI is 22.4 µM in experiment [7]; 5.16 µM in experiment [8]; 7.23 µM in experiment [9]; 20.3 µM in [10]; 4.08 µM in experiment [11]; 3.4 µM in experiment [12]. The TGI in [13] was found to be 12.3 µM; in [15] it was 3.18 µM; in [16] it was 35.6 µM; in experiment [17], 2.9 µM; in experiment [18], 7.93 µM; in experiment [19] it was 15.4 µM. Further, in [20], the TGI worked out at 41.4 µM.

`Cc1ccccc1N=CN(C)C`: the TGI was > 100 µM in [1]; 39 µM in [2]; > 100 µM in experiment [3]; > 100 µM in [4]; > 100 µM in experiment [5]; > 100 µM in experiment [6]. Also, the TGI in experiment [7], in experiment [8], in experiment [9], in [10], in experiment [11] and in [12] was > 100 µM in each case. The TGI in [13] was > 100 µM; in experiment [14] it was 71.1 µM; in experiment [15], 58.2 µM; in [17], > 100 µM; in experiment [18], > 100 µM; in experiment [20] it was > 100 µM.

For the molecule `N#CC1(C#N)NC(c2cccnc2)C(C#N)(C#N)NC1c1cccnc1` (stereo not given), the TGI in experiment [1], in [2], in [3], in [4], in [5] and in experiment [6] was > 100 µM throughout. The TGI in experiment [7], in [8], in [9], in experiment [10], in experiment [11] and in experiment [12] was > 100 µM each time. Besides, the TGI in experiment [13], in experiment [14], in experiment [15], in [17], in experiment [18] and in [19] was > 100 µM throughout. In addition, the TGI in [20] was > 100 µM.

In the case of `CC(C)(Br)C(Br)CCC(=CCBr)CBr` (mixture of isomers), the TGI in [2] amounted to 2.15 µM; in experiment [3], 6.86 µM; in experiment [4], 10.9 µM; in experiment [5], 28.3 µM; in experiment [6] it was 8.26 µM; in experiment [7], 13.2 µM. Besides, the TGI in experiment [8] worked out at 9.16 µM; in experiment [9], 37.2 µM; in experiment [10], 4.85 µM; in experiment [11] it was 13.3 µM; in experiment [12], 17 µM; in experiment [13], 4.29 µM. Further, the TGI in [14] came to 15.6 µM; in experiment [15] it was 4.83 µM; in [16], 9.9 µM; in experiment [17] it was 4.41 µM; in [18], 13.5 µM; in experiment [19], 10.2 µM. Also, the TGI in [20] was 28.3 µM.

Turning to `Cc1ccc(-c2cc(-c3ccc(Cl)cc3)nc(/N=C3\C(=O)N(CN4CCOCC4)c4ccccc43)n2)cc1`, the TGI in experiment [1] was 50.5 µM; in experiment [2], 26.3 µM; in experiment [3], > 100 µM; in experiment [4], 70.2 µM; in [5], 89.9 µM; in experiment [6], 77 µM. Moreover, the TGI was > 100 µM in experiment [7]; 65.1 µM in experiment [8]; 67.9 µM in experiment [9]; > 100 µM in [10]; 62.7 µM in experiment [11]; > 100 µM in experiment [12]. Also, the TGI is > 100 µM in experiment [13]; 46.4 µM in experiment [14]; 50.8 µM in experiment [16]; 93.9 µM in experiment [17]; 69.4 µM in experiment [18]; 58.5 µM in experiment [19]. For the same molecule, in [20], the TGI is 39.7 µM.
